Results from US20250282827A1, “LIPIDATED POLYMYXIN ANALOGUES” (priority 2021, published 2025).
≈ marks a conversion by molar mass, not a printed value. Values belong to the compound of their own block, whether it stands above or below them. Positions of bridges follow the written chain, without caps; N, C: chain ends. Non-standard residues stand in square brackets, D forms with d. Residues, ends and D or L forms follow the SMILES beside them. *: point of attachment. Ethyl(2-butanoyloxy) = CCCC(=O)OCC*; Ethyl(2-propionyloxy) = CCC(=O)OCC*; hCys = N[C@@H](CCS)C(=O)O; Octanoyl = CCCCCCCC(=O)*; Dab = NCC[C@H](N)C(=O)O; Dap = NC[C@H](N)C(=O)O; Mpa = O=C(O)CCS

Legend:
[1] = test system: E. coli ATCC 25922; type: cell-based, Escherichia coli; conditions: ATCC 25922
Text: (§1) All 81 compounds prepared in Examples 2 and 3 underwent screening against a panel of Gram-negative bacterium to assess their ability to inhibit bacterial growth. […] The median value is presented.

[2] = test system: A. baumannii ATCC 19606; type: cell-based, Acinetobacter baumannii; conditions: ATCC 19606
Text: as §1

[3] = test system: P. aeruginosa ATCC 27853; type: cell-based, Pseudomonas aeruginosa; conditions: ATCC 27853
Text: as §1

[4] = test system: K. pneumoniae ATCC 33495; type: cell-based, Klebsiella pneumoniae; conditions: ATCC 33495
Text: as §1

[5] = test system: K. pneumoniae ATCC 700603; type: cell-based, Klebsiella pneumoniae; conditions: ATCC 700603
Text: as §1

[6] = test system: K. pneumoniae ATCC MS6671; type: cell-based, Klebsiella pneumoniae; conditions: ATCC MS6671
Text: as §1

[7] = test system: E. coli ATCC MS8345; type: cell-based, Escherichia coli; conditions: ATCC MS8345
Text: as §1
Expansion of the polymyxin macrocycle by substituting […]) offered little advantage in antimicrobial activity but was generally well tolerated although for A. baumanni and P. aeruginosa this was detrimental.

SMILES: CCC(=O)OCCSC[C@@H](N)C(=O)N[C@@H](CCN)C(=O)N[C@H](C(=O)N[C@@H](CCN)C(=O)N[C@H]1CCNC(=O)[C@H]([C@@H](C)O)NC(=O)[C@H](CCN)NC(=O)[C@H](CCN)NC(=O)[C@H](CC(C)C)NC(=O)[C@@H](Cc2ccccc2)NC(=O)[C@H](CCN)NC1=O)[C@@H](C)O [Compound 58] (H-[dC](Ethyl(2-propionyloxy))[Dab]T[Dab][Dab][Dab][dF]L[Dab][Dab]T; lactam 5-C)
- MIC E. coli ATCC 25922 [1]: 2 µg/mL (≈ 1.58 µM)
- MIC A. baumannii ATCC 19606 [2]: >32 µg/mL
- MIC P. aeruginosa ATCC 27853 [3]: 2 µg/mL (≈ 1.58 µM)
- MIC K. pneumoniae ATCC 33495 [4]: 2 µg/mL (≈ 1.58 µM)
- MIC K. pneumoniae ATCC 700603 [5]: 4 µg/mL (≈ 3.16 µM)
- MIC K. pneumoniae ATCC MS6671 [6]: >32 µg/mL

SMILES: CCC(=O)OCCSCC[C@H](N)C(=O)N[C@H](C(=O)N[C@@H](CN)C(=O)N[C@H]1CCNC(=O)[C@H]([C@@H](C)O)NC(=O)[C@H](CCN)NC(=O)[C@H](CCN)NC(=O)[C@H](CC(C)C)NC(=O)[C@@H](Cc2ccccc2)NC(=O)[C@H](CCN)NC1=O)[C@@H](C)O [Compound 84] (H-[hCys](Ethyl(2-propionyloxy))T[Dap][Dab][Dab][dF]L[Dab][Dab]T; lactam 4-C)
- MIC E. coli ATCC 25922 [1]: 32 µg/mL (≈ 27.4 µM)

SMILES: CCC(=O)OCCSCCC(=O)N[C@H](C(=O)N[C@H](CO)C(=O)N[C@H]1CCNC(=O)[C@H]([C@@H](C)O)NC(=O)[C@H](CCN)NC(=O)[C@H](CCN)NC(=O)[C@H](CC(C)C)NC(=O)[C@@H](Cc2ccccc2)NC(=O)[C@H](CCN)NC1=O)[C@@H](C)O [Compound 87] ([Mpa](Ethyl(2-propionyloxy))T[dS][Dab][Dab][dF]L[Dab][Dab]T; lactam 4-C)
- MIC E. coli ATCC 25922 [1]: 16 µg/mL (≈ 14.1 µM)

SMILES: CCCC(=O)OCCSC[C@@H](N)C(=O)N[C@H](C(=O)N[C@@H](CCN)C(=O)N[C@H]1CCNC(=O)[C@H]([C@@H](C)O)NC(=O)[C@H](CCN)NC(=O)[C@H](CCN)NC(=O)[C@H](CC(C)C)NC(=O)[C@@H](Cc2ccccc2)NC(=O)[C@H](CCN)NC1=O)[C@@H](C)O [Compound 89] (H-[dC](Ethyl(2-butanoyloxy))T[Dab][Dab][Dab][dF]L[Dab][Dab]T; lactam 4-C)
- MIC A. baumannii ATCC 19606 [2]: 4 µg/mL (≈ 3.39 µM)
- MIC P. aeruginosa ATCC 27853 [3]: 2 µg/mL (≈ 1.69 µM)
- MIC K. pneumoniae ATCC 33495 [4]: 1 µg/mL (≈ 0.847 µM)
- MIC K. pneumoniae ATCC 700603 [5]: 1 µg/mL (≈ 0.847 µM)
- MIC K. pneumoniae ATCC MS6671 [6]: >32 µg/mL
- MIC E. coli ATCC MS8345 [7]: 32 µg/mL (≈ 27.1 µM)

SMILES: CCCCCCCC(=O)N[C@@H](CCN)C(=O)N[C@H](C(=O)N[C@@H](CCN)C(=O)N[C@H]1CCNC(=O)[C@H]([C@@H](C)O)NC(=O)[C@H](CCN)NC(=O)[C@H](CCN)NC(=O)[C@H](CC(C)C)NC(=O)[C@@H](Cc2ccccc2)NC(=O)[C@H](CCN)NC1=O)[C@@H](C)O [polymyxin B3, reference compound] (Octanoyl-[Dab]T[Dab][Dab][Dab][dF]L[Dab][Dab]T; lactam 4-C (inferred); N-terminus assumed)
- activity against E. coli (MIC) [1]: 0.25 µg/mL

More lines, now with the values ahead:

- MIC E. coli ATCC 25922 [1]: >128 µg/mL
SMILES: CCC(=O)OCCSC[C@H](N)C(=O)N[C@H](C(=O)N[C@H](CO)C(=O)N[C@H]1CCNC(=O)[C@H]([C@@H](C)O)NC(=O)[C@H](CCN)NC(=O)[C@H](CCN)NC(=O)[C@H](CC(C)C)NC(=O)[C@@H](Cc2ccccc2)NC(=O)[C@H](CCN)NC1=O)[C@@H](C)O [Compound 85] (H-C(Ethyl(2-propionyloxy))T[dS][Dab][Dab][dF]L[Dab][Dab]T; lactam 4-C)

- MIC E. coli ATCC 25922 [1]: 2 µg/mL (≈ 1.73 µM)
SMILES: CCC(=O)OCCSC[C@@H](N)C(=O)N[C@H](C(=O)N[C@H](CO)C(=O)N[C@H]1CCNC(=O)[C@H]([C@@H](C)O)NC(=O)[C@H](CCN)NC(=O)[C@H](CCN)NC(=O)[C@H](CC(C)C)NC(=O)[C@@H](Cc2ccccc2)NC(=O)[C@H](CCN)NC1=O)[C@@H](C)O [Compound 86] (H-[dC](Ethyl(2-propionyloxy))T[dS][Dab][Dab][dF]L[Dab][Dab]T; lactam 4-C)

- MIC E. coli ATCC 25922 [1]: >64 µg/mL
SMILES: CCC(=O)OCCSCC[C@H](N)C(=O)N[C@H](C(=O)N[C@H](CO)C(=O)N[C@H]1CCNC(=O)[C@H]([C@@H](C)O)NC(=O)[C@H](CCN)NC(=O)[C@H](CCN)NC(=O)[C@H](CC(C)C)NC(=O)[C@@H](Cc2ccccc2)NC(=O)[C@H](CCN)NC1=O)[C@@H](C)O [Compound 88] (H-[hCys](Ethyl(2-propionyloxy))T[dS][Dab][Dab][dF]L[Dab][Dab]T; lactam 4-C)
